A word on the IC50: it is the point on the concentration scale where inhibition reaches its midpoint.

The values that follow come from patent US20160168118A1, “N-(5-QUINOLIN-6-YL)PYRIDIN-3-YL) BENZSULFAMIDE DERIVATIVES, PREPARATION METHOD AND THERAPEUTIC USE THEREOF” (SECOND MILITARY MEDICAL UNIVERSITY, PLA, priority 2012, published 2016).

One data set has as its target PI3Kα (Homo sapiens, UniProt P42336). As to the kind of experiment: Kinase-Glo Luminescent Kinase Assay, PI3Kα. The data set is classed as biochemical.
The next data set concerns the target PI3Kβ (Homo sapiens, UniProt P42338). As to the kind of experiment: ADP-Glo Luminescent Kinase Assay, PI3Kβ. It counts as biochemical. Particulars: read-out: IC50 on PI3K beta. On the technique in general: In ADP-Glo the light output rises with the ADP produced.
In the next data set the target is PI3K delta (Homo sapiens, UniProt O00329). The data set can be described thus: Kinase-Glo Luminescent Kinase Assay, PI3K delta. The data set is classed as biochemical. (In general: Kinase-Glo reads ATP consumption through a luciferase reaction.)
PI3K delta, sequence (O00329 whole entry): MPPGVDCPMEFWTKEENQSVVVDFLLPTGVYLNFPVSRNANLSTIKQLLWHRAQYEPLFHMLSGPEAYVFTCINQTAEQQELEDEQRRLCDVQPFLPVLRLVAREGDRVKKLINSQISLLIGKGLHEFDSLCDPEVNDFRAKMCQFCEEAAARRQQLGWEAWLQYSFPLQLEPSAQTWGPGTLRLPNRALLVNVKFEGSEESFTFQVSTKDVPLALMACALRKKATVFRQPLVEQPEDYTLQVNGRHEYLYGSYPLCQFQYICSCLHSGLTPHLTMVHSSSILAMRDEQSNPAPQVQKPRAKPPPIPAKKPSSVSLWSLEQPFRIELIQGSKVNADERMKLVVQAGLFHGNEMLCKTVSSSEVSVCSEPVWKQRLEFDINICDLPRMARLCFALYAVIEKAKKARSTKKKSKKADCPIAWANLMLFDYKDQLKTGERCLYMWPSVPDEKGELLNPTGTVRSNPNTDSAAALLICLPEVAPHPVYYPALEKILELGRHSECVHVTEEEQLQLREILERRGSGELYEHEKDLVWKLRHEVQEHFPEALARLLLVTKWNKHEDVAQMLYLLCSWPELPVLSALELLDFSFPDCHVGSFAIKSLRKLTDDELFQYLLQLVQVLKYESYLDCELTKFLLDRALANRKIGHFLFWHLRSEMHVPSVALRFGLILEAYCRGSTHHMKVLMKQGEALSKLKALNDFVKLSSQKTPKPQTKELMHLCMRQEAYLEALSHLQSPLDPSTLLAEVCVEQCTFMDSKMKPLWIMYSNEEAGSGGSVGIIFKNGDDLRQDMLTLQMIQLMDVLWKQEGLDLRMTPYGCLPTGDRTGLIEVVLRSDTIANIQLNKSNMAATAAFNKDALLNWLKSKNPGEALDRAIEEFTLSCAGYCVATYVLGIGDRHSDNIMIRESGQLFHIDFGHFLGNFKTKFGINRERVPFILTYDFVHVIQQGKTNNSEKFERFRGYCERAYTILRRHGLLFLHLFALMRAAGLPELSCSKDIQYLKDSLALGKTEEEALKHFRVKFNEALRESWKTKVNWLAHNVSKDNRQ
PI3K delta, sequence (P27986 whole entry partner): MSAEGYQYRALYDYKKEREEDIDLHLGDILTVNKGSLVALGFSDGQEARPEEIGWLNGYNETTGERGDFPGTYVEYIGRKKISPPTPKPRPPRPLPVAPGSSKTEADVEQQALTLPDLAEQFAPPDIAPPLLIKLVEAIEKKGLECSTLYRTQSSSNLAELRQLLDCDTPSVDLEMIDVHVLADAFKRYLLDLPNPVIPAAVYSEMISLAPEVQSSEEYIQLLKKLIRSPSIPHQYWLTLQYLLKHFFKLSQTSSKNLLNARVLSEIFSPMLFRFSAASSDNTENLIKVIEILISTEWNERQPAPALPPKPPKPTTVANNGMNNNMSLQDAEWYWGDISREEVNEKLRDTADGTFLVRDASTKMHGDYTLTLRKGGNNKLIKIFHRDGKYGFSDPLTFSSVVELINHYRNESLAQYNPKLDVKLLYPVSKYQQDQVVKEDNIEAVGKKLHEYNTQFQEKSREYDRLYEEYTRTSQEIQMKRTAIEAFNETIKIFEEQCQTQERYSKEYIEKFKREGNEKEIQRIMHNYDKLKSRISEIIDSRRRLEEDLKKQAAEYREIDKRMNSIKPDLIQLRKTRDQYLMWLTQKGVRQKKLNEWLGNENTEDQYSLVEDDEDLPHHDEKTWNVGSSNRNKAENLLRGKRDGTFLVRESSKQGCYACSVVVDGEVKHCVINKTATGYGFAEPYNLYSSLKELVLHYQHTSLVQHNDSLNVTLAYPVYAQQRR
Another data set deals with mTOR (Homo sapiens, UniProt P42345). The data set can be described thus: Lance Ultra Assay, mTOR. It counts as biochemical.
Data set [1] relates to A549 (human lung cancer cells). As to the kind of experiment: MTT assay, A549. The data set is classed as cell-based. The conditions noted are these: 72 h. The procedure, abridged: (§1)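 Cells seeded at 4~5×10^4 cells/ml in DMEM with 5-10% FBS, treated after 24 h for 72 h at 37° C, 5% CO2, in duplicate wells. MTT (5 mg/ml) added for 4 h, formazan dissolved and OD read at 570 nm.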
(Formazan colour is commonly taken as a measure of viable cells.)

The subject of data set [2] is HCT116 (human colon cancer cells). The data set can be described thus: MTT assay, HCT116. It counts as cell-based. Particulars: HCT-116, 72 h.
The test system of data set [3] is U87MG (human brain star glioblastoma). The data set can be described thus: MTT assay, U87MG. It counts as cell-based. The conditions noted are these: U-87 MG, 72 h. A digest of the protocol: as §1
In a further data set the test system is A549. The data set can be described thus: NCI cytotoxicity test, A549. It counts as cell-based. The conditions noted are these: Homo sapiens. An excerpt: (§2) Cytotoxicity Test of Compound 9, 10 and 17 on 60 Kinds of Human Cancer Cell Lines from the US National Cancer Institute
Another data set relates to SF539. The data set can be described thus: NCI cytotoxicity test, SF539. The data set is classed as cell-based. The conditions noted are these: Homo sapiens, SF-539.
Description: as §2

The next data set has as its system OVCAR3. As to the kind of experiment: NCI cytotoxicity test, OVCAR3. The data set is classed as cell-based. Particulars: Homo sapiens, OVCAR-3.
Description: as §2

The subject of another data set is SN12C. As to the kind of experiment: NCI cytotoxicity test, SN12C. Particulars: Homo sapiens. The data set is classed as cell-based.
Description: as §2

The subject of the next data set is MCF7. As to the kind of experiment: NCI cytotoxicity test, MCF7. The data set is classed as cell-based. The conditions noted are these: Homo sapiens.
Description: as §2

Data set [4] concerns 60 kinds of human cancer cell lines. As to the kind of experiment: Cytotoxicity test on 60 kinds of human cancer cell lines from the US National Cancer Institute. The data set is classed as cell-based.
Description: as §2

Data set [5] has as its system human lung carcinoma A549 xenografts. The data set can be described thus: In vivo efficacy on human lung carcinoma A549 xenografts in nude mice. Also on record: species or system BALB/C nude mice. Particulars: ig, GSK2126458 3 mg/kg, compound 9 10 mg/kg. The source says:
Strain: BALB/C nude mice (SPF grade), Source: Shanghai Slac laboratory animal limited liability company, the production license number: SCXK (Shanghai) 2007-0005, the using license number: SYXK (Shanghai) 2009-0068, gender: male, weight: 18-20 g, the number of animals per group: 6.
A549 solid tumors which were well-grown were taken, cut to uniform bits of about 3 mm size under aseptic condition, every bit was inoculated to each mouse subcutaneously in the right armpit with trocar, and randomly divided into three groups, each treatment was:
1) Control (saline), gavage, the dose 25 ml/kg, 14 days;
3) Compound 9, gavage, the dose 10 mg/kg, 14 days;
Regrouped according to tumor size on the 13th day after inoculation, the animals of which tumor size is too large and too small were eliminated, the average tumor volume of each group are basically the same. Administration was carried out according to the above regimen; the dosing volume was 0.5 ml/20 g body weight. The axis (a), shorter diameter (b) of tumor was measured 2 times a week with an electronic digital caliper, calculate formula of tumor volume (tumor volume, TV) is as follows: TV=1/2×a×b2, calculate formula of relative tumor volume (relative tumor volume, RTV), is as follows: RTV=Vt/Vo, wherein Vo is the tumor volume measured at the time when dividing cages (i.e. dl), Vt is the tumor volume measured each time. […] T test was conducted. Animals were sacrificed 30 days after inoculation, dissected and the tumor mass were taken, tumor weight was measured.

≈ marks a conversion by molar mass, not a printed value. Read-outs that look alike come from different tables or passages of the source.

PI3Kβ, sequence (P42338 whole entry, species assumed): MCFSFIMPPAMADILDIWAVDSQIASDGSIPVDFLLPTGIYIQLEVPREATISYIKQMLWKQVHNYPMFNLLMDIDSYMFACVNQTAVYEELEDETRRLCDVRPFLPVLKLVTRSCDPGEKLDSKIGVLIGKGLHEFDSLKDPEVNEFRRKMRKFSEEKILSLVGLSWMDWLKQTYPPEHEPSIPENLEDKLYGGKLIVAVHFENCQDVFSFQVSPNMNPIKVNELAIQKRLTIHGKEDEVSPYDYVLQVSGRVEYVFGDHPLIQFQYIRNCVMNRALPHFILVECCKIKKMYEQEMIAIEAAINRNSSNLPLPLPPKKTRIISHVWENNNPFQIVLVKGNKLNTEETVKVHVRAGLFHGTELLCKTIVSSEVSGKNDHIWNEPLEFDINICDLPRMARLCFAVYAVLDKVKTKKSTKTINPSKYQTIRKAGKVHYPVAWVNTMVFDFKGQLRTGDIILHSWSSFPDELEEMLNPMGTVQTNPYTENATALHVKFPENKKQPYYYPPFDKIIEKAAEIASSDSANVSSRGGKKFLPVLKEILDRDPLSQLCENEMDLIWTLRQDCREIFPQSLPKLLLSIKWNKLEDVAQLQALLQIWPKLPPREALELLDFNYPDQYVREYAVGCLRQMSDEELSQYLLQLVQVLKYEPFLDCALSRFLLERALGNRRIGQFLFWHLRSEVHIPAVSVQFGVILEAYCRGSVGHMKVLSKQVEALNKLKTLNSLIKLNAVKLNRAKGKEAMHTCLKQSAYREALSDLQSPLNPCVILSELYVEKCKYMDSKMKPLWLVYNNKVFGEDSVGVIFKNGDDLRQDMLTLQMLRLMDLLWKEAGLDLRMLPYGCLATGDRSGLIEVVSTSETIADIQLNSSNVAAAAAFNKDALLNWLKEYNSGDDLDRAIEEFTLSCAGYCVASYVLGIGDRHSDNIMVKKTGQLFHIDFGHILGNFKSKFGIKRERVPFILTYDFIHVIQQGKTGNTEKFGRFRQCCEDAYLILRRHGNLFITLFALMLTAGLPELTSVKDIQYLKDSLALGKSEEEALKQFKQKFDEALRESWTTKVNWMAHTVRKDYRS
PI3Kβ, sequence (P27986 whole entry partner, species assumed): as the sequence (P27986 whole entry partner) above
PI3Kα, sequence (P42336 whole entry, species assumed): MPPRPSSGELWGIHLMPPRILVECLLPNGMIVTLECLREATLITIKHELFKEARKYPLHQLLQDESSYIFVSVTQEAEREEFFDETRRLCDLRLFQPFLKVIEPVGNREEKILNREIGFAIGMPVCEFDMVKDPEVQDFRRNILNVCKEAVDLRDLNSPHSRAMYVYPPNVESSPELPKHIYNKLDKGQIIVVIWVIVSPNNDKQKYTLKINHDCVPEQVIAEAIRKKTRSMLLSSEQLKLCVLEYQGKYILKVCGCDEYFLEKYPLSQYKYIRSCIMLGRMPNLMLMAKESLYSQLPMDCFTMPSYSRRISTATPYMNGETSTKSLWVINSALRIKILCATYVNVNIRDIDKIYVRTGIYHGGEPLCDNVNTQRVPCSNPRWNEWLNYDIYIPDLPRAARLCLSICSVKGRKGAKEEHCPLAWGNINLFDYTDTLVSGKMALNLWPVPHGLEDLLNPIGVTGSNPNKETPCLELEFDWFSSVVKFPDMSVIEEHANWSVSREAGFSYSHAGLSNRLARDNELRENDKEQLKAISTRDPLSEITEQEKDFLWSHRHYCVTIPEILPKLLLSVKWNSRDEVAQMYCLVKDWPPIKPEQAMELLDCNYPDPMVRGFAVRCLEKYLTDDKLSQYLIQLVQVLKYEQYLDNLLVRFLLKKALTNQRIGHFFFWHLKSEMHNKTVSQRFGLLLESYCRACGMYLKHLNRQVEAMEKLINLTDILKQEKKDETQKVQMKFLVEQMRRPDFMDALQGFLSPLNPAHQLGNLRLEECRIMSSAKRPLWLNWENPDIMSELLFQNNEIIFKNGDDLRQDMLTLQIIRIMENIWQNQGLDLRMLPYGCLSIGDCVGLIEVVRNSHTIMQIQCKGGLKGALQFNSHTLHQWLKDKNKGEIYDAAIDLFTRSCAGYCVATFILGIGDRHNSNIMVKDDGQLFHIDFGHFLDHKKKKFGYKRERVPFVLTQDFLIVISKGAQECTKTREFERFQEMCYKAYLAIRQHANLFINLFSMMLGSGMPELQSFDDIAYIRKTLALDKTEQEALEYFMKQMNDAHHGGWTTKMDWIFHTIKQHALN
PI3Kα, sequence (P27986 whole entry partner, species assumed): as the sequence (P27986 whole entry partner) above

For `COc1ncc(-c2ccc3nccc(-c4ccc(CN(C)C)cc4)c3c2)cc1NS(=O)(=O)c1ccc(F)cc1F` [Compound 9, N-(5-(4-(4-((dimethylamine)methyl)phenyl)quinolin-6-yl)-2-methoxypyridine-3-yl)-2,4-difluorobenzenesulfonamide], the half-maximal inhibitory concentration (IC50) turned out to be 0.0013 µM against PI3Kα; 0.0018 µM on PI3Kβ; 0.0038 µM against PI3K delta; 0.0038 µM on mTOR; 2.47 ng/mL (≈ 4.41 nM) in data set [1]; 1.69 ng/mL (≈ 3.01 nM) in [2]. Besides, 51 ng/mL (≈ 91 nM) corresponded to half-maximal inhibition in data set [3] (IC50). Besides, the GI50 with A549 is under 0.01 µM; with SF539, 0.017 µM; with OVCAR3, under 0.01 µM; in the data set with SN12C it was under 0.01 µM; with MCF7, under 0.01 µM; in data set [4] (on the 35 tumor cell lines, read-out: average half growth inhibitory concentration (GI50)), under 0.01 µM. Also, the GI50 in data set [4] (on the 60 kinds of tumor cells, read-out: Average GI50) came to 0.0186 µM. In addition, the “Animal wight (g) (tumor removed)” value in data set [5] (at end) stood at 23.28 ± 1.34 g. Moreover, in [5] (d18), the “RTV (d18) x ± SD” value amounted to 5.37 ± 1.86.
